Measurements: ChEMBL document CHEMBL1201862, “PubChem BioAssay data set” (2004)
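A five-concentration, 48-hour dose response in 96-well plates underlies each endpoint, interpolated linearly between surrounding concentrations. Here, GI50 denotes the concentration required for 50% inhibition of growth.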 Activity calls are given as the source filed them. No stated cut-off is given here; in the data, active = GI50 up to about 1.1 µM and inactive = higher.

Legend:
Assay in all cases: DTP human tumour cell line panel, 48 h
K562 = system: K562
CCRF-CEM = system: CCRF-CEM
SR = system: SR
OVCAR-8 = system: OVCAR-8
LOX IMVI = system: LOX IMVI
A549 = system: A549
A498 = system: A498
HOP-18 = system: HOP-18
COLO 205 = system: COLO 205
DMS-273 = system: DMS-273
SF-295 = system: SF-295
SW-620 = system: SW-620
MOLT-4 = system: MOLT-4
UO-31 = system: UO-31
SK-MEL-28 = system: SK-MEL-28
SK-MEL-5 = system: SK-MEL-5
IGROV-1 = system: IGROV-1
NCI-H522 = system: NCI-H522
RXF 393 = system: RXF 393
HOP-92 = system: HOP-92
HL-60 = system: HL-60
SK-OV-3 = system: SK-OV-3
CAKI-1 = system: CAKI-1
RPMI-8226 = system: RPMI-8226
UACC-62 = system: UACC-62
Malme-3M = system: Malme-3M
M14 = system: M14
KM-20L2 = system: KM-20L2
LXFL 529 = system: LXFL 529
ACHN = system: ACHN
TK-10 = system: TK-10
HCT-15 = system: HCT-15
SNB-78 = system: SNB-78
SNB-19 = system: SNB-19
M19-MEL = system: M19-MEL
NCI-H226 = system: NCI-H226
DLD-1 = system: DLD-1
DMS-114 = system: DMS-114
HCT-116 = system: HCT-116
OVCAR-4 = system: OVCAR-4
OVCAR-5 = system: OVCAR-5
SN12C = system: SN12C
SF-539 = system: SF-539
HT-29 = system: HT-29
SNB-75 = system: SNB-75
NCI-H23 = system: NCI-H23
KM12 = system: KM12
UACC-257 = system: UACC-257
EKVX = system: EKVX
HOP-62 = system: HOP-62
NCI-H460 = system: NCI-H460
SF-268 = system: SF-268
U-251 = system: U-251
OVCAR-3 = system: OVCAR-3
786-0 = system: 786-0
SK-MEL-2 = system: SK-MEL-2
HCC 2998 = system: HCC 2998

Cc1ccc2nc3c(Cl)c(C)c(=O)cc-3sc2c1
GI50 (K562): 26.9 µM (inactive)
GI50 (CCRF-CEM): 7.18 µM (inactive)
GI50 (SR): > 10 µM (inactive)
GI50 (OVCAR-8): 51.1 µM (inactive)
GI50 (LOX IMVI): 42.1 µM (inactive)
GI50 (A549): 70.5 µM (inactive)
GI50 (A498): > 100 µM (inactive)
GI50 (HOP-18): > 10 µM (inactive)
GI50 (COLO 205): > 10 µM (inactive)
GI50 (DMS-273): 76 µM (inactive)
GI50 (SF-295): 41.2 µM (inactive)
GI50 (SW-620): 83.4 µM (inactive)
GI50 (MOLT-4): 10.7 µM (inactive)
GI50 (UO-31): 52.5 µM (inactive)
GI50 (SK-MEL-28): > 10 µM (inactive)
GI50 (SK-MEL-5): 60.3 µM (inactive)
GI50 (IGROV-1): > 10 µM (inactive)
GI50 (NCI-H522): 35.3 µM (inactive)
GI50 (RXF 393): 21.5 µM (inactive)
GI50 (HOP-92): 64 µM (inactive)
GI50 (HL-60): 26.4 µM (inactive)
GI50 (SK-OV-3): > 10 µM (inactive)
GI50 (CAKI-1): > 10 µM (inactive)
GI50 (RPMI-8226): 23 µM (inactive)

NC(CCC(=O)NC(CSC(=O)N(O)c1ccc(Br)cc1)C(=O)NCC(=O)O)C(=O)O (stereo not drawn)
GI50 (UACC-62): > 100 µM (inactive)
GI50 (K562): 76.2 µM (inactive)
GI50 (CCRF-CEM): > 100 µM (inactive)
GI50 (SR): 81.7 µM (inactive)
GI50 (Malme-3M): > 100 µM (inactive)
GI50 (M14): 30 µM (inactive)
GI50 (KM-20L2): 35.2 µM (inactive)
GI50 (OVCAR-8): > 100 µM (inactive)
GI50 (LXFL 529): 46.9 µM (inactive)
GI50 (LOX IMVI): 61.5 µM (inactive)
GI50 (ACHN): 25.1 µM (inactive)
GI50 (A498): > 100 µM (inactive)
GI50 (HOP-18): 38.2 µM (inactive)
GI50 (TK-10): > 100 µM (inactive)
GI50 (COLO 205): > 100 µM (inactive)
GI50 (DMS-273): > 100 µM (inactive)
GI50 (HCT-15): 77.6 µM
GI50 (UO-31): 90.4 µM (inactive)
GI50 (SNB-78): > 100 µM (inactive)
GI50 (SK-MEL-5): > 100 µM (inactive)
GI50 (SNB-19): > 100 µM (inactive)
GI50 (IGROV-1): > 100 µM (inactive)
GI50 (NCI-H522): > 100 µM (inactive)
GI50 (M19-MEL): > 100 µM (inactive)
GI50 (NCI-H226): > 100 µM (inactive)
GI50 (HL-60): > 100 µM (inactive)
GI50 (DLD-1): 86.5 µM (inactive)
GI50 (DMS-114): > 100 µM (inactive)
GI50 (HCT-116): 88.5 µM (inactive)
GI50 (SK-OV-3): 29.2 µM (inactive)
GI50 (CAKI-1): 70.3 µM (inactive)
GI50 (RPMI-8226): 66.4 µM (inactive)

COC(=O)/C(=N\NC(C)(C)C)C(C(=O)C(=O)Nc1cc(C)ccc1C)c1nc2ccccc2nc1O (stereo not drawn)
GI50 (UACC-62): > 100 µM (inactive)
GI50 (K562): > 100 µM (inactive)
GI50 (CCRF-CEM): > 100 µM (inactive)
GI50 (OVCAR-4): > 100 µM (inactive)
GI50 (SR): > 100 µM (inactive)
GI50 (KM-20L2): > 100 µM (inactive)
GI50 (OVCAR-8): > 100 µM (inactive)
GI50 (OVCAR-5): > 100 µM (inactive)
GI50 (SN12C): > 100 µM (inactive)
GI50 (LOX IMVI): > 100 µM (inactive)
GI50 (SF-539): > 100 µM (inactive)
GI50 (HT-29): > 100 µM (inactive)
GI50 (ACHN): > 100 µM (inactive)
GI50 (A498): > 100 µM (inactive)
GI50 (SNB-75): > 100 µM (inactive)
GI50 (TK-10): > 100 µM (inactive)
GI50 (COLO 205): > 100 µM (inactive)
GI50 (SF-295): > 100 µM (inactive)
GI50 (NCI-H23): > 100 µM (inactive)
GI50 (SW-620): > 100 µM (inactive)
GI50 (MOLT-4): > 100 µM (inactive)
GI50 (KM12): > 100 µM (inactive)
GI50 (SK-MEL-5): > 100 µM (inactive)
GI50 (SNB-19): > 100 µM (inactive)
GI50 (IGROV-1): > 100 µM (inactive)
GI50 (UACC-257): > 100 µM (inactive)
GI50 (EKVX): > 100 µM (inactive)
GI50 (NCI-H226): > 100 µM (inactive)
GI50 (HOP-62): > 100 µM (inactive)
GI50 (HOP-92): > 100 µM (inactive)
GI50 (HL-60): > 100 µM (inactive)
GI50 (DLD-1): > 100 µM (inactive)
GI50 (CAKI-1): > 100 µM (inactive)
GI50 (RPMI-8226): > 100 µM (inactive)

CSc1ccc2c(cc1=O)C(NC(=O)c1ccccc1)CCc1cc(O)c(O)c(O)c1-2 (stereo not drawn)
GI50 (UACC-62): 5.05 µM (inactive)
GI50 (NCI-H460): 19 µM (inactive)
GI50 (K562): 10.9 µM (inactive)
GI50 (CCRF-CEM): 6.73 µM (inactive)
GI50 (OVCAR-4): 16.3 µM (inactive)
GI50 (Malme-3M): 7.14 µM (inactive)
GI50 (SF-268): 22.9 µM (inactive)
GI50 (M14): 15.6 µM (inactive)
GI50 (KM-20L2): 1.81 µM (inactive)
GI50 (OVCAR-8): 37.4 µM (inactive)
GI50 (OVCAR-5): > 100 µM (inactive)
GI50 (U-251): 6.37 µM (inactive)
GI50 (SN12C): 18.4 µM (inactive)
GI50 (LXFL 529): 23.4 µM (inactive)
GI50 (LOX IMVI): 16.4 µM (inactive)
GI50 (SF-539): 3.15 µM (inactive)
GI50 (HT-29): 32.3 µM (inactive)
GI50 (A549): 30.5 µM (inactive)
GI50 (ACHN): 37.6 µM (inactive)
GI50 (A498): 22.3 µM (inactive)
GI50 (SNB-75): 2.91 µM (inactive)
GI50 (HOP-18): > 100 µM (inactive)
GI50 (OVCAR-3): 2.51 µM (inactive)
GI50 (TK-10): 52.8 µM (inactive)
GI50 (COLO 205): 23.2 µM (inactive)
GI50 (DMS-273): 26.9 µM (inactive)
GI50 (SF-295): 4.22 µM (inactive)
GI50 (NCI-H23): 4.37 µM (inactive)
GI50 (SW-620): 15.7 µM (inactive)
GI50 (HCT-15): 18.1 µM
GI50 (MOLT-4): 21.3 µM (inactive)
GI50 (786-0): 29.4 µM (inactive)
GI50 (UO-31): 77.8 µM (inactive)
GI50 (SK-MEL-2): 5.5 µM (inactive)
GI50 (SK-MEL-28): 24.5 µM (inactive)
GI50 (KM12): 4.81 µM (inactive)
GI50 (SNB-78): 6.79 µM (inactive)
GI50 (HCC 2998): 4.84 µM (inactive)
GI50 (SK-MEL-5): 2.61 µM (inactive)
GI50 (SNB-19): 5.69 µM (inactive)
GI50 (IGROV-1): 22 µM (inactive)
GI50 (NCI-H522): 17.1 µM (inactive)
GI50 (UACC-257): 15.3 µM (inactive)
GI50 (M19-MEL): 4.94 µM (inactive)
GI50 (EKVX): 6.22 µM (inactive)
GI50 (NCI-H226): 21.2 µM (inactive)
GI50 (RXF 393): 24.5 µM (inactive)
GI50 (HOP-62): 6.01 µM (inactive)
GI50 (HOP-92): 4.06 µM (inactive)
GI50 (HL-60): 7.43 µM (inactive)
GI50 (DLD-1): 16.7 µM (inactive)
GI50 (DMS-114): 26.2 µM (inactive)
GI50 (HCT-116): 18.5 µM (inactive)
GI50 (SK-OV-3): 5.71 µM (inactive)
GI50 (CAKI-1): 27.6 µM (inactive)
GI50 (RPMI-8226): 19.1 µM (inactive)

COc1cc(Cc2c(C)cc(OC)c3[nH]c4ccccc4c23)cc2c1[nH]c1ccccc12
GI50 (OVCAR-8): 4.57 µM (inactive)
GI50 (OVCAR-5): 4.99 µM (inactive)
GI50 (OVCAR-3): 5.42 µM (inactive)
GI50 (SNB-78): 5.79 µM (inactive)
GI50 (SNB-19): 8.85 µM (inactive)
GI50 (DMS-114): 10.5 µM (inactive)
GI50 (RPMI-8226): 9.95 µM (inactive)
